The values below come from patent US20040038226A1, “Transgenic animal model by mineralocorticoid receptor antisense expression” (priority 2000, published 2004).

For this data set, the target named is T1, mMR (Mus musculus, UniProt Q8VII8).
T1 construct: the level of expression of the endogenous mMR observed in the control males; endogenous in cells; host or cells: whole mice in vivo: double transgenic alphaMHC-tTA/MR animals, with cardiac mMR mRNA lowered by about 50% by the antisense, and wild or single transgenic controls
T1 sequence (Q8VII8 1-978): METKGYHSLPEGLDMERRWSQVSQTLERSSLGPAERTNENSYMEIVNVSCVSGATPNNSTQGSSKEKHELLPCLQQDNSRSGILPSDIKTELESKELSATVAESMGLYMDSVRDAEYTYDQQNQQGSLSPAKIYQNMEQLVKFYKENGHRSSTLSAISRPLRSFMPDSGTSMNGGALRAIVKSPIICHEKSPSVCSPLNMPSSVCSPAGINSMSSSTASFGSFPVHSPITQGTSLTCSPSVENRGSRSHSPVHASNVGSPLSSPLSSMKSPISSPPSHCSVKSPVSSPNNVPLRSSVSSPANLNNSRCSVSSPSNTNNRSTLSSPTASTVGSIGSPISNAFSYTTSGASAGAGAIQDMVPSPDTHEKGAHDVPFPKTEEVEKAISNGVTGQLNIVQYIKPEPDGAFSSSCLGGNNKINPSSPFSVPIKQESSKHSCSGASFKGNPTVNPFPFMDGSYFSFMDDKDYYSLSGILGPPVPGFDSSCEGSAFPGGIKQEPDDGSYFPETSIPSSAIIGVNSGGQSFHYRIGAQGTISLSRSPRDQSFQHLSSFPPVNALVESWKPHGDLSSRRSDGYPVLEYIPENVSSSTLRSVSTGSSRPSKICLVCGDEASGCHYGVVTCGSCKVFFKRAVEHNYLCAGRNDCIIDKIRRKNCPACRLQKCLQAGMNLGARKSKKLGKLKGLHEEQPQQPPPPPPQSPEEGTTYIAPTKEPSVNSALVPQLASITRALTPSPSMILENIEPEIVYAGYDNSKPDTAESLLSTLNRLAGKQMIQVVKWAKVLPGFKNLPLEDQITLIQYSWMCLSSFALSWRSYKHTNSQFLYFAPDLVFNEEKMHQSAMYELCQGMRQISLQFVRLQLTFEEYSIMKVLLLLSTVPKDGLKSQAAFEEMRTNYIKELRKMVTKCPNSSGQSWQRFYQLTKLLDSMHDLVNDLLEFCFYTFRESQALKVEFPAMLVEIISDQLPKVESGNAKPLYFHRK
The data set is described as follows: Administration of spironolactone to control animals (wild or single transgenic). Format: in vivo, mice. Conditions: 30 mg/kg/day.

Regarding `CC(=O)S[C@@H]1CC2=CC(=O)CC[C@]2(C)[C@H]2CC[C@@]3(C)[C@@H](CC[C@@]34CCC(=O)O4)[C@H]12` [spironolactone], the “functional or structural alteration of the heart” value is listed as “does not produce any functional or structural alteration”.
